Target: T1, TFEB (Homo sapiens, UniProt P19484)
T1 sequence (P19484 1-476): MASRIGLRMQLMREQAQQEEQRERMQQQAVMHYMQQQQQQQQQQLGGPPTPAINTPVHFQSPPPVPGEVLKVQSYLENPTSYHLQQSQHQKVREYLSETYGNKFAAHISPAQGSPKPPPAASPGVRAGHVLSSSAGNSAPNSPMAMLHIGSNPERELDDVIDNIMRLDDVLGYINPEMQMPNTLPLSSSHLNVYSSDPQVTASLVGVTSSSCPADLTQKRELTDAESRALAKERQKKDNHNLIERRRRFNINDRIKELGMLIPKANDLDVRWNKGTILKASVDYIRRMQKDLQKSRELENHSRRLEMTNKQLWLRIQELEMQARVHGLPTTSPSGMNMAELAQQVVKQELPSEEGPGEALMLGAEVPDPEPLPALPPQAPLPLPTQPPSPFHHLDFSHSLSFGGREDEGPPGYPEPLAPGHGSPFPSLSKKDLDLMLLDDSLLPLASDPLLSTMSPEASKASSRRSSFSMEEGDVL
Test: Tfeb-Translocation Assay HEK-293T-oEX-Tfeb-GFP Cell Line
Format: cell-based
Details: HEK-293T-oEX-TFEB-GFP cells; translocation positive cells ratio; read-out: TFEB Translocation EC50
Method: Tfeb-Translocation Assay HEK-293T-oEX-Tfeb-GFP Cell Line
• 1). Added 2×10^6 cell into a T75 flask with 15 mL DiVEM medium (with 10% FBS, 1% PS, 1×GLUTAMAX, 1×MEM NEAA, 1×HEPES Buffer Solution and 5 ug/mL blasticidin). • 2). Culturing for 48-72 hours. Cells in logarithmic growth phase were taken for experiment. The other cells were passaged as described in step 1. • 3). Seeded 1×10^4 cells/30 μL/well into 384-well plate (BD 356663). Cultured overnight at 37° C. & 5% CO2 incubator. • 4). Note: Used cells <10 passage
• 1). Compounds were firstly diluted by DMSO to the stock needed (10 mM), and aliquoted and stored at −20° C. • 2). Took one aliquot each time and made 3-fold or 2-fold dilutions as indicated, total 10 doses plus one DMSO control well in the source plate. • 3). Added 150 or 90 nL/well compounds solution to the assay plate by ECHO and incubated for 6 or 18 hours respectively at 37° C. & 5% CO2 incubator.
• 1). Added 30 uL 8% PFA into the wells and incubated 20 min at room temperature. • 2). Discarded the medium, washed the wells twice with DPBS to eliminate foam and bubbles in the well.
• 1). Diluted Hoechest-333824 in DPBS to get 2 μg/mL solution and added 30 uL/well into assay plate, incubated at room temperature for 20 mins. • 2). Discarded the supernatant, washed the wells twice with DPBS to eliminate foam and bubbles in the well. Then added DPBS 20 uL/well.
3). Scanned Plate by Operetta.
• 1). Reference compound: Torin 1 • 2). Test compounds: C1, C2, C3, C4, C5, C6. • 3). Diluted compounds in 384 LDV-dilution plate according to the dilution plate map • 4). Compounds starting concentration: Torin 1: 300 nM and Test compounds: 50 uM.
• 1). Selected all nucleus by Operetta as ‘All Cells’ • 2). Calculated the EGFP average intensity inside the Nucleus region. • 3). Selected population that the EGFP mean intensity inside the Nucleus region>background as the EGFP-positive cells • 4). Selected the Surrounding region of the nucleus and calculated the EGFP mean intensity of the region • 5). Inside the EGFP-positive cell population, selected the cells with EGFP mean intensity inside the Nucleus region/the EGFP mean intensity inside the surrounding region=1.2 (This ratio could be slightly adjusted from time to time) as the Translocation positive cell. • 6). Outputted the ratio of Translocation positive cell/EGFP-positive cells as the Translocation Positive Ratio. • 7). Each time set the ratio of DMSO group (Control Group) as ˜15% and then normalized the compound group to the DMSO group.

EC50 | Compound
0.1 to 1 µM | Cc1nc2ccn(Cc3ccccc3)c(=O)c2cc1C(=O)NCc1cnn(C)n1 [Example 9, 6-benzyl-2-methyl-N-((2-methyl-2H-1,2,3-triazol-4-yl)methyl)-5-oxo-5,6-dihydro-1,6-naphthyridine-3-carboxamide]
< 0.1 µM | Cc1ccc(Cn2ccc3nc(C)c(C(=O)NCc4ccccn4)cc3c2=O)cc1 [Example 54, 2-methyl-6-(4-methylbenzyl)-5-oxo-N-(pyridin-2-ylmethyl)-5,6-dihydro-1,6-naphthyridine-3-carboxamide]
≥ 10 µM | Cc1nc2ccn(Cc3cnn(C)c3)c(=O)c2cc1C(=O)NCc1ccccn1 [Example 49, 2-methyl-6-((1-methyl-1H-pyrazol-4-yl)methyl)-5-oxo-N-(pyridin-2-ylmethyl)-5,6-dihydro-1,6-naphthyridine-3-carboxamide]
< 0.1 µM | Cc1nc2ccn(Cc3ccc(Cl)c(F)c3)c(=O)c2cc1C(=O)NCc1ccccn1 [Example 75, 6-(4-chloro-3-fluorobenzyl)-2-methyl-5-oxo-N-(pyridin-2-ylmethyl)-5,6-dihydro-1,6-naphthyridine-3-carboxamide]
0.1 to 1 µM | Cc1ccc(CNC(=O)c2cc3c(=O)n(Cc4ccccc4)ccc3nc2C)cc1 [Example 68, 6-benzyl-2-methyl-N-(4-methylbenzyl)-5-oxo-5,6-dihydro-1,6-naphthyridine-3-carboxamide]
0.1 to 1 µM | Cc1nc2ccn(Cc3ccccc3)c(=O)c2cc1C(=O)NCc1cccs1 [Example 71, 6-benzyl-2-methyl-5-oxo-N-(thiophen-2-ylmethyl)-5,6-dihydro-1,6-naphthyridine-3-carboxamide]
≥ 10 µM | Cc1nc2ccn(Cc3ccccc3)c(=O)c2cc1C(=O)NC(C)c1ccccn1 (centres unmarked) [Example 28, 6-benzyl-2-methyl-5-oxo-N-(1-(pyridin-2-yl)ethyl)-5,6-dihydro-1,6-naphthyridine-3-carboxamide]
0.1 to 1 µM | Cc1nc2ccn(Cc3ccccc3)c(=O)c2cc1C(=O)NCc1cnccn1 [Example 32, 6-benzyl-2-methyl-5-oxo-N-(pyrazin-2-ylmethyl)-5,6-dihydro-1,6-naphthyridine-3-carboxamide]
≥ 10 µM | COCCn1ccc2nc(C)c(C(=O)NCc3cnc(C)o3)cc2c1=O [Example 21, 6-(2-methoxyethyl)-2-methyl-N-((2-methyloxazol-5-yl)methyl)-5-oxo-5,6-dihydro-1,6-naphthyridine-3-carboxamide]
1 to 10 µM | Nc1nc2ccn(Cc3ccccc3)c(=O)c2cc1C(=O)NCc1ccccn1 [Example 74, 2-amino-6-benzyl-5-oxo-N-(pyridin-2-ylmethyl)-5,6-dihydro-1,6-naphthyridine-3-carboxamide]
0.1 to 1 µM | Cc1ncc(CNC(=O)c2cc3c(=O)n(Cc4ccccc4)ccc3nc2C)o1 [Example 4, 6-benzyl-2-methyl-N-((2-methyloxazol-5-yl)methyl)-5-oxo-5,6-dihydro-1,6-naphthyridine-3-carboxamide]
1 to 10 µM | COCCOCCOc1ccc(Cn2ccc3nc(C)c(C(=O)NCc4ccc(Cl)cn4)cc3c2=O)cc1 [Example 64, N-((5-chloropyridin-2-yl)methyl)-6-(4-(2-(2-methoxyethoxy)ethoxy)benzyl)-2-methyl-5-oxo-5,6-dihydro-1,6-naphthyridine-3-carboxamide]
0.1 to 1 µM | Cc1nc2ccn(Cc3ccccc3F)c(=O)c2cc1C(=O)NCc1ccccn1 [Example 56, 6-(2-fluorobenzyl)-2-methyl-5-oxo-N-(pyridin-2-ylmethyl)-5,6-dihydro-1,6-naphthyridine-3-carboxamide]
< 0.1 µM | Cc1nc2ccn(Cc3ccc(F)c(F)c3)c(=O)c2cc1C(=O)NCc1cc(F)c(F)cn1 [Example 62, 6-(3,4-difluorobenzyl)-N-((4,5-difluoropyridin-2-yl)methyl)-2-methyl-5-oxo-5,6-dihydro-1,6-naphthyridine-3-carboxamide]

Source: patent US20250281483A1, “TRANSCRIPTION FACTOR EB ACTIVATORS AND USES THEREOF” (Astellas Engineered Small Molecules US, Incorporated, priority 2022, published 2025)
